Assay results published in PubChem BioAssay AID248 (DTP/NCI, 2004).
Where “and” joins values, the source holds several entries; their conditions need not be identical. Identical values can stand only once. Toxic doses and inconclusive results are not listed. Rule as the data show it: active = T/C of 150% or more; inactive = T/C below 125%.

System: L1210 leukemia ip in BDF1 mice, survival T/C
Test: NCI In Vivo Anticancer Drug Screen. Data for tumor model L1210 Leukemia (intraperitoneal) in B6D2F1 (BDF1) mice
Conditions: endpoint: mean survival time, higher = longer survival
Method in brief: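 Transplanted-tumor mice were given test agent; controls received vehicle only. Survival readings from the two groups were divided (treated over control).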

[1] = dose: 100.0 mg/kg/injection, schedule: Q04DX003 (ip), vehicle: Klucel (hydroxypropylcellulose) (HPC)
[2] = dose: 200.0 mg/kg/injection, schedule: Q04DX003 (ip), vehicle: Klucel (hydroxypropylcellulose) (HPC)
[3] = dose: 400.0 mg/kg/injection, schedule: Q04DX003 (ip), vehicle: Klucel (hydroxypropylcellulose) (HPC)
[4] = dose: 200.0 mg/kg/injection, schedule: Q01DX009 (ip), vehicle: saline
[5] = dose: 100.0 mg/kg/injection, schedule: Q04DX002 (ip), vehicle: Klucel (hydroxypropylcellulose) (HPC)
[6] = dose: 200.0 mg/kg/injection, schedule: Q04DX002 (ip), vehicle: Klucel (hydroxypropylcellulose) (HPC)
[7] = dose: 400.0 mg/kg/injection, schedule: Q04DX002 (ip), vehicle: Klucel (hydroxypropylcellulose) (HPC)
[8] = dose: 100.0 mg/kg/injection, schedule: Q01DX001 (ip), vehicle: saline
[9] = dose: 200.0 mg/kg/injection, schedule: Q01DX001 (ip), vehicle: saline
[10] = dose: 100.0 mg/kg/injection, schedule: Q04DX003 (ip), vehicle: saline with Tween-80
[11] = dose: 200.0 mg/kg/injection, schedule: Q04DX003 (ip), vehicle: saline with Tween-80

Measured: T/C

Cc1ccc(S(=O)(=O)OCC2C(COS(=O)(=O)c3ccc(C)cc3)C3CCC2C3C(c2ccccc2)c2ccccc2)cc1 (stereo unspecified)
inactive: dose: 100.0 mg/kg/injection, schedule: Q01DX009 (ip), vehicle: Klucel (hydroxypropylcellulose) (HPC) 103 % of control | [1] 98 % of control | dose: 200.0 mg/kg/injection, schedule: Q01DX009 (ip), vehicle: Klucel (hydroxypropylcellulose) (HPC) 94 % of control | [2] 102 % of control | dose: 400.0 mg/kg/injection, schedule: Q01DX009 (ip), vehicle: Klucel (hydroxypropylcellulose) (HPC) 111 % of control | [3] 96 % of control

O=C1CN(CO)C(=O)CN1CO
inactive: dose: 44.0 mg/kg/injection, schedule: Q01DX009 (ip), vehicle: saline 105 % of control | dose: 66.0 mg/kg/injection, schedule: Q01DX009 (ip), vehicle: saline 99 % of control | dose: 150.0 mg/kg/injection, schedule: Q01DX009 (ip), vehicle: saline 108 % of control | [4] 105 % of control | dose: 400.0 mg/kg/injection, schedule: Q01DX009 (ip), vehicle: saline 106 % of control

O=C1C=C(c2ccccc2)C(=O)C2(c3ccccc3)C=CCC(c3ccccc3)C12 (stereo unspecified)
inactive: [5] 113 % of control | [6] 113 % of control | [7] 95 % of control

COc1ccc2cc1Oc1ccc(cc1)CC1c3cc(c(OC)cc3CCN1C)Oc1c(OC)c(OC)c(OC)c3c1C(C2)N(C)CC3 (stereo unspecified)
inactive: [5] 102 % of control | [6] 91 % of control | [7] 94 % of control

C=COC(=O)NCC(=O)O
inactive: [8] 91 % of control | [9] 97 % of control | dose: 400.0 mg/kg/injection, schedule: Q01DX001 (ip), vehicle: saline 92 % of control

CC(=O)C(=O)C=C(C(F)(F)F)C(F)(F)F
inactive: [10] 113 % of control | [11] 106 % of control | dose: 400.0 mg/kg/injection, schedule: Q04DX003 (ip), vehicle: saline with Tween-80 101 % of control

NC(=O)c1ccccc1C(=O)c1ccccc1
inactive: [8] 102 % of control | [9] 104 % of control

CN(CCO)C(=O)/C=C/c1ccc(O)cc1
inactive: dose: 50.0 mg/kg/injection, schedule: Q01DX009 (ip), vehicle: saline 95 % of control | dose: 100.0 mg/kg/injection, schedule: Q01DX009 (ip), vehicle: saline 95 % of control | [4] 101 % of control

O=C(O)C1CCCCC1C(=O)Nc1cccc(C(F)(F)F)c1 (stereo unspecified)
inactive: dose: 12.5 mg/kg/injection, schedule: Q01DX009 (ip), vehicle: saline with Tween-80 102 % of control | dose: 25.0 mg/kg/injection, schedule: Q01DX009 (ip), vehicle: saline with Tween-80 101 % of control | dose: 50.0 mg/kg/injection, schedule: Q01DX009 (ip), vehicle: saline with Tween-80 88 % of control and 92 % of control | [10] 102 % of control | [11] 92 % of control

Fc1cccc2ccccc12
inactive: dose: 100.0 mg/kg/injection, schedule: Q01DX009 (ip), vehicle: saline with Tween-80 105 % of control | dose: 200.0 mg/kg/injection, schedule: Q01DX009 (ip), vehicle: saline with Tween-80 87 % of control

CCOC(=O)Nc1nc(NC(=O)OCC)c(Cl)nc1Cl
inactive: dose: 25.0 mg/kg/injection, schedule: Q01DX009 (ip), vehicle: water 104 % of control | dose: 50.0 mg/kg/injection, schedule: Q01DX009 (ip), vehicle: water 100 % of control | dose: 100.0 mg/kg/injection, schedule: Q01DX009 (ip), vehicle: water 114 % of control | dose: 200.0 mg/kg/injection, schedule: Q01DX009 (ip), vehicle: water 106 % of control | dose: 400.0 mg/kg/injection, schedule: Q01DX009 (ip), vehicle: water 97 % of control

O=C(CCCCC(=O)N=C(c1ccccc1)c1ccccc1)N=C(c1ccccc1)c1ccccc1
inactive: dose: 222.0 mg/kg/injection, schedule: Q01DX Z (ip), vehicle: methylcellulose (MC) 93 % of control | dose: 333.0 mg/kg/injection, schedule: Q01DX Z (ip), vehicle: methylcellulose (MC) 98 % of control | dose: 500.0 mg/kg/injection, schedule: Q01DX Z (ip), vehicle: methylcellulose (MC) 97 % of control

CC(C)c1ccc(C(=S)N2CCOCC2)cc1
inactive: [1] 97 % of control | [2] 101 % of control | [3] 105 % of control
